We go through seven compounds from ChEMBL document CHEMBL4359897, “Discovery of novel functionalized 1,2,4-triazoles as PARP-1 inhibitors in breast cancer: Design, synthesis and antitumor activity evaluation” (Eur J Med Chem, 2019).

Usually IC50 stands for the concentration that inhibits the measured activity by half.

The source made the active and inactive calls. No cut-off for these calls is given here.

The subject of assay [1] is MCF7. The assay is described as follows: Antiproliferative activity against human MCF7 cells assessed as increase in PARP1-89 protein expression at 5 uM incubated for 30 hrs by Western blot analysis. The assay is classed as functional, cell-based. In general terms: Immunoblotting shows a protein as a band on a membrane.
Assay [2] concerns MCF7. Briefly: Cytotoxicity against human MCF7 cells at 2.5 to 5 uM incubated for 30 hrs by MTT assay. The assay is classed as functional, cell-based. A general note: Formazan colour is commonly taken as a measure of viable cells.
Assay [3] deals with MCF7. The assay is described as follows: Inhibition of cell migration in human MCF7 cells incubated for 30 hrs by scratch wound assay. The assay is classed as functional, cell-based.
Assay [4] relates to MCF7. The assay is described as follows: Cytotoxicity against human MCF7 cells assessed as increase in extra cellular LDH at 2.5 to 5 uM incubated for 30 hrs by spectrophotometric based LDH assay. The assay is classed as functional, cell-based.
Assay [5] deals with MCF7. The assay is described as follows: Antiproliferative activity against human MCF7 cells incubated for 30 hrs by hematoxylin staining based BrdU incorporation assay. The assay is classed as functional, cell-based. A general note: Incorporation of labelled thymidine or its analogues reports DNA synthesis.
The test system of assay [6] is MCF7. Briefly: Inhibition of cell migration in human MCF7 cells at 2.5 to 5 uM incubated for 30 hrs by scratch wound assay relative to control. The assay is classed as functional.
Assay [7] addresses Poly [ADP-ribose] polymerase 1 (Homo sapiens, UniProt P09874). The assay is described as follows: Inhibition of recombinant human full length N-terminal GST- tagged PARP1 expressed in baculovirus infected sf9 cells using Colorimetric HRP as substrate incubated for 30 mins by UV/Vis spectrophotometer analysis.

Poly [ADP-ribose] polymerase 1, sequence (P09874 whole entry): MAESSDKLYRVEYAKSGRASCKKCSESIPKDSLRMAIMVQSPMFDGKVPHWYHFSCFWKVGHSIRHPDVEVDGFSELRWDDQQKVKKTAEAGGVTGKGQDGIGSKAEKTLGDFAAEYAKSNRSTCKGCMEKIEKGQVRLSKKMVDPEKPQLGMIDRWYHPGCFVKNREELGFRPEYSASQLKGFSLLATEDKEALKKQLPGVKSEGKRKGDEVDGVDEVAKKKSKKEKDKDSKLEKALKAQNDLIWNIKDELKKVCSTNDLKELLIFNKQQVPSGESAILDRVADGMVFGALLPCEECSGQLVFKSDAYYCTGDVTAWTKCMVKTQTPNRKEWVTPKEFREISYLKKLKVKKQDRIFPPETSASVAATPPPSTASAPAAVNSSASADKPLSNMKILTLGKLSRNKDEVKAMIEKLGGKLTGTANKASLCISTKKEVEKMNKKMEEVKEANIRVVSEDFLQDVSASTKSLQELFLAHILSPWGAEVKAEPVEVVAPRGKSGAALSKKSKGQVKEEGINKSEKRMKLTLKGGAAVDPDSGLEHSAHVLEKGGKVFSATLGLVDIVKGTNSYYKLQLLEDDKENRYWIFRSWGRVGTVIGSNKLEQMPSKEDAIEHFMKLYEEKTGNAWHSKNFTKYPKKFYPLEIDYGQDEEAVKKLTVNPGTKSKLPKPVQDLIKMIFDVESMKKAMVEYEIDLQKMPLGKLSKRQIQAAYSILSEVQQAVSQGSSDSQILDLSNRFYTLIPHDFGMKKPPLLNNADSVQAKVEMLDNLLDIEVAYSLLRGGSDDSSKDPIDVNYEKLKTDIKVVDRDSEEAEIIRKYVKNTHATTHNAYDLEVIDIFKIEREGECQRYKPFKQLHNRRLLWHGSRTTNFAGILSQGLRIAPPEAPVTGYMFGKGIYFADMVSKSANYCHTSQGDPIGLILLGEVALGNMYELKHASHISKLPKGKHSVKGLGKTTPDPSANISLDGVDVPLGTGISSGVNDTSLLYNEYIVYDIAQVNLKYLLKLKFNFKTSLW

In the case of `C=CCSc1nnc(-c2cc3ccccc3n2CC=C)n1-c1ccccc1`, the result in assay [1], in assay [2] and in assay [4] was Active. The inhibition entry in assay [3] was “Dose-dependent effect”. Moreover, the Activity result in assay [5] is “Dose-dependent effect”. The “inhibition (INH)” value in assay [6] is reported as 30 - 40%. For the same compound, the IC50 in assay [7] is 350 nM.

Regarding `S=c1[nH]nc(-c2cc3ccccc3[nH]2)n1-c1ccccc1`, the result in assay [1], in assay [2] and in assay [4] was Active. Also, in assay [3], the inhibition entry was “Dose-dependent effect”. For the same compound, the Activity result in assay [5] is “Dose-dependent effect”. For the same compound, the “inhibition (INH)” value in assay [6] is reported as 30 - 40%. In addition, the IC50 in assay [7] came to 2100 nM.

Regarding `O=C(c1cc(Cc2n[nH]c(=O)c3ccccc23)ccc1F)N1CCN(C(=O)C2CC2)CC1`, the result in assay [2] was Active.

Consider `S=c1[nH]nc(CSc2nnc(-c3cc4ccccc4[nH]3)n2-c2ccccc2)n1-c1ccccc1`, for which the outcome in assay [4] was Active. The IC50 in assay [7] stood at 8080 nM.

Take `CC(=O)OC[C@H]1O[C@@H](Sc2nnc(-c3cc4ccccc4[nH]3)n2-c2ccccc2)[C@H](OC(C)=O)[C@@H](OC(C)=O)[C@@H]1OC(C)=O`: the result in assay [1] was inactive. In addition, the result in assay [2] and in assay [4] was Active. Besides, the Activity result in assay [5] was “Dose-dependent effect”. Besides, in assay [6], the inhibition result is “inactive”. Besides, in assay [7], the IC50 came to 2220 nM.

As to `CC(O)CSc1nnc(-c2cc3ccccc3[nH]2)n1-c1ccccc1` (configuration not stated), the result in assay [4] was Active. The IC50 in assay [7] was 330 nM.

For `C=CCSc1nnc(-c2cc3ccccc3[nH]2)n1-c1ccccc1`, the outcome in assay [1], in assay [2] and in assay [4] was Active. In addition, in assay [3], the inhibition entry is “Dose-dependent effect”. For the same compound, in assay [5], the Activity entry is “Dose-dependent effect”. In addition, in assay [6], the “inhibition (INH)” value was 30 - 40%. Also, the IC50 in assay [7] was 2400 nM.
